Results reported in patent US5965088A, “Method for providing rapid disinfection of contact lenses” (priority 1997, dated 1999).
Like-named read-outs stand apart in the source and are kept apart here.

Columns and labels:
[1] = system: Pseudomonas aeruginosa, Staphylococcus aureus, Serratia marcescens, Candida albicans, Fusarium solani; experiment: Stand-Alone Procedure for Disinfecting Products, primary performance criteria; format: cell-based, bacteria, yeast and mold; details: for one hour stand-alone test for bacteria: 1 hr, bacteria only
Protocol: (§1) This Example illustrates the microbiocidal efficacy of solutions according to the present invention. The antimicrobial efficacy of each of various compositions for the chemical disinfection of contact lenses was evaluated. Microbial challenge inoculums were prepared using Pseudomonas aeruginosa (ATCC 9027), Staphylococcus aureus (ATCC 6538), Serratia marcescens (ATCC 13880), Candida albicans (ATCC 10231), and Fusarium solani (ATCC 36031). The test organisms were cultured on appropriate agar and the cultures were harvested using sterile DPBST (Dulbecco's Phosphate Buffered Saline plus 0.05% w/v polysorbate 80) or a suitable diluent and transferred to a suitable vessel. Spore suspensions were filtered through sterile glass wool to remove hyphal fragments. Serratia marcescens, as appropriate, was filtered (eg., through a 1.2 μ filter) to clarify the suspension. After harvesting, the suspension was centrifuged at no more than 5000× g for a maximum of 30 minutes at 20-25° C. The supernatant was poured off and resuspended in DPBST or other suitable diluent. The suspension was centrifuged a second time, and resuspended in DPBST or other suitable diluent. All challenge bacterial and fungal cell suspensions were adjusted with DPBST or other suitable diluent to 1×10^7 -10^8 cfu/mL. The appropriate cell concentration may be estimated by measuring the turbidity of the suspension, for example using a spectrophotometer at a preselected wavelength, for example 490 nm. One tube was prepared containing a minimum of 10 mL of test solution per challenge organism. Each tube of the solution to be tested was inoculated with a suspension of the test organism sufficient to provide a final count of 1.0×10^5 -10^6 cfu/mL, the volume of the inoculum not exceeding 1% of the sample volume. Dispersion of the inoculum was ensured by vortexing the sample for at least 15 seconds. The inoculated product was stored at 10-25° C. Aliquots in the amount of 1.0 mL were taken of the inoculated product for determination of viable counts after certain time periods of disinfection. The time points for the bacteria were 25, 50, 75, and 100% of the minimum disinfection time. Yeast and mold were tested at an additional timepoint of at least 400% of the minimum disinfection time. The suspension was mixed well by vortexing vigorously for at least 5 second. The 1.0 mL aliquots removed at the specified time intervals were subjected to a suitable series of decimal dilutions in validated neutralizing media. The suspensions were mixed vigorously and incubated for a suitable period of time to allow for neutralization of the microbial agent. The viable count of organisms was determined in appropriate dilutions by preparation of triplicate plates of trypticase soy (TSA) agar for bacteria and Sabouraud dextrose agar (SDA) for mold and yeast. The bacterial recovery plates were incubated at 30-35° C. for 2-4 days. The yeast was incubated at 20-30° C. for 2-4 days and mold recovery plates at 20-25° C. for 3-7 days. The average number of colony forming units was determined on countable plates. Countable plates refer to 30-300 cfu/plates for bacteria and yeast, and 8 to 80 cfu/plate for mold except when colonies are observed only for the 10^0 or 10^-1 dilution plates. The microbial reduction was then calculated at the specified time points. […] Following inoculation in a validated neutralizing broth and incubation for an appropriate period of time, the inoculum control must be between 1.0×10^5 -1.0×10^6 cfu/mL
(§2) The solutions were evaluated based on the performance requirement referred to as the "Stand-Alone Procedure for Disinfecting Products" (hereafter the "stand-alone test") and is based on the Disinfection Efficacy Testing for contact lens care products under the Draft Premarket Notification (510(k)) Guidance Document For Contact Lens Care Products dated Apr. 1, 1996, prepared by the U.S. Food and Drug Administration, Division of Ophthalmic Devices. […]

[2] = system: Pseudomonas aeruginosa, Staphylococcus aureus, Serratia marcescens, Candida albicans, Fusarium solani; experiment: Stand-Alone Procedure, secondary performance criteria (entrance into the regimen test); format: cell-based, bacteria, yeast and mold; details: for 10 minute entrance into the regimen: 10 min; for secondary performance criteria: 4.0 ppm, Example 12
Protocol: This Example illustrates the microbiocidal efficacy of solutions according to the present invention. The antimicrobial efficacy of each of various compositions for the chemical disinfection of contact lenses was evaluated. Microbial challenge inoculums were prepared using Pseudomonas aeruginosa (ATCC 9027), Staphylococcus aureus (ATCC 6538), Serratia marcescens (ATCC 13880), Candida albicans (ATCC 10231), and Fusarium solani (ATCC 36031). The test organisms were cultured on appropriate agar and the cultures were harvested using sterile DPBST (Dulbecco's Phosphate Buffered Saline plus 0.05% w/v polysorbate 80) or a suitable diluent and transferred to a suitable vessel. Spore suspensions were filtered through sterile glass wool to remove hyphal fragments. Serratia marcescens, as appropriate, was filtered (eg., through a 1.2 μ filter) to clarify the suspension. After harvesting, the suspension was centrifuged at no more than 5000× g for a maximum of 30 minutes at 20-25° C. The supernatant was poured off and resuspended in DPBST or other suitable diluent. The suspension was centrifuged a second time, and resuspended in DPBST or other suitable diluent. All challenge bacterial and fungal cell suspensions were adjusted with DPBST or other suitable diluent to 1×10^7 -10^8 cfu/mL. The appropriate cell concentration may be estimated by measuring the turbidity of the suspension, for example using a spectrophotometer at a preselected wavelength, for example 490 nm. One tube was prepared containing a minimum of 10 mL of test solution per challenge organism. Each tube of the solution to be tested was inoculated with a suspension of the test organism sufficient to provide a final count of 1.0×10^5 -10^6 cfu/mL, the volume of the inoculum not exceeding 1% of the sample volume. Dispersion of the inoculum was ensured by vortexing the sample for at least 15 seconds. The inoculated product was stored at 10-25° C. Aliquots in the amount of 1.0 mL were taken of the inoculated product for determination of viable counts after certain time periods of disinfection. […] The viable count of organisms was determined in appropriate dilutions by preparation of triplicate plates of trypticase soy (TSA) agar for bacteria and Sabouraud dextrose agar (SDA) for mold and yeast. […] The average number of colony forming units was determined on countable plates. […] The microbial reduction was then calculated at the specified time points. […]
as §2, with “Apr.” for “Apr. 1, 1996, prepared by the U.S. Food and Drug Administration, Division of Ophthalmic Devices.”

[3] = system: Pseudomonas aeruginosa (ATCC 9027); experiment: Antimicrobial efficacy (stand-alone log reduction), P. aeruginosa; format: cell-based; details: for log reduction at 4 µg/mL: 4.0 ppm alexidine in ReNu MPS
Protocol: as §1, §2

CCCCC(CC)CNC(=N)NC(=N)NCCCCCCNC(=N)NC(=N)NCC(CC)CCCC.Cl.Cl (centres unmarked) [Alexidine.2HCl, 1,1 '-hexamethylenebis(5-(2-ethylhexyl)-biguanide) dihydrochloride]
one hour stand-alone test for bacteria ([1]; 1.0 ppm): will not pass the one hour stand-alone test for bacteria
one hour stand-alone test for bacteria ([1]; 2.0 ppm): passes the one hour stand-alone test for bacteria
one hour stand-alone test ([1]; 4.0 ppm alexidine in ReNu MPS): passed the one hour stand-alone test
stand-alone test ([1]; 4.0 ppm, Example 6, 30, 45, 60 min, no rub or rinse): able to pass a stand-alone test (with no rub or rinse) at the 30 minute time point, 45 time point and the 60 minute time point
stand-alone test ([1]; 4.0 ppm, Example 7, 30, 45, 60 min): passed the stand alone test at 30 minutes, 45 minutes, and 60 minutes
stand-alone test ([1]; 4.0 ppm, Example 7, 15 min, with respect to Serratia marcescens and Candida albicans): only just passed the 15 minute stand-alone test
stand-alone test ([1]; 4.0 ppm, Example 8, 30, 45, 60 min, without rubbing): passed the stand-alone test (without rubbing) at 30 minutes, 45 minutes, and 60 minutes
stand-alone test ([1]; 4.0 ppm, Example 8, 15 min, without rubbing): did not pass the test at 15 minutes
time required to pass a stand-alone procedure without rubbing ([1]; 4.0 ppm, Tables 3, 4 and 5): at least 30 minutes
10 minute entrance into the regimen ([2]; 1.0 ppm): does not pass the 10 minute entrance into the regimen
10 minute entrance into the regimen ([2]; 2.0 ppm): passes the 10 minute entrance into the regimen
secondary performance criteria ([2]; soak 2.5 min): failed in all cases
secondary performance criteria ([2]; soak 10 min): met in all cases
log reduction at 4 ppm ([3]; ATCC9027, 2.5 min, 4.0 ppm, aged 18 months, Exp. 1, 2.5 min, read-out: Log Reduction): 2.4
log reduction at 4 ppm ([3]; ATCC9027, 2.5 min, 4.0 ppm, aged 18 months, Exp. 2, 2.5 min, read-out: Log Reduction): 1.9
log reduction at 4 ppm ([3]; ATCC9027, 2.5 min, 4.0 ppm, aged 18 months, Exp. 3, 2.5 min, read-out: Log Reduction): 2.7
log reduction at 1 ppm ([3]; ATCC9027, 5 min, 1.0 ppm, read-out: Log Reduction at 5 Minutes): 0.5
log reduction at 2 ppm ([3]; ATCC9027, 5 min, 2.0 ppm, read-out: Log Reduction at 5 Minutes): 3
log reduction at 3 ppm ([3]; ATCC9027, 5 min, 3.0 ppm, read-out: Log Reduction at 5 Minutes): 3.8
log reduction at 4 ppm ([3]; ATCC9027, 5 min, 4.0 ppm, aged 18 months, Exp. 1, 5.0 min, read-out: Log Reduction): 3.2
log reduction at 4 ppm ([3]; ATCC9027, 5 min, 4.0 ppm, aged 18 months, Exp. 2, 5.0 min, read-out: Log Reduction): 3.2
log reduction at 4 ppm ([3]; ATCC9027, 5 min, 4.0 ppm, aged 18 months, Exp. 3, 5.0 min, read-out: Log Reduction): 3.1
log reduction at 4 ppm ([3]; ATCC9027, 5 min, 4.0 ppm, read-out: Log Reduction at 5 Minutes): 3.7
log reduction at 5 ppm ([3]; ATCC9027, 5 min, 5.0 ppm, read-out: Log Reduction at 5 Minutes): > 5
log reduction at 4 ppm ([3]; ATCC9027, 0.125 h, 4.0 ppm, aged 18 months, Exp. 1, 7.5 min, read-out: Log Reduction): 3.4
log reduction at 4 ppm ([3]; ATCC9027, 0.125 h, 4.0 ppm, aged 18 months, Exp. 2, 7.5 min, read-out: Log Reduction): 3.8
log reduction at 4 ppm ([3]; ATCC9027, 0.125 h, 4.0 ppm, aged 18 months, Exp. 3, 7.5 min, read-out: Log Reduction): 4.1
log reduction at 1 ppm ([3]; ATCC9027, 10 min, 1.0 ppm, read-out: Log Reduction at 10 Minutes): 3.2
log reduction at 2 ppm ([3]; ATCC9027, 10 min, 2.0 ppm, read-out: Log Reduction at 10 Minutes): 4.3
log reduction at 3 ppm ([3]; ATCC9027, 10 min, 3.0 ppm, read-out: Log Reduction at 10 Minutes): > 5
log reduction at 4 ppm ([3]; ATCC9027, 10 min, 4.0 ppm, aged 18 months, Exp. 1, 10.0 min, read-out: Log Reduction): > 4.8
log reduction at 4 ppm ([3]; ATCC9027, 10 min, 4.0 ppm, aged 18 months, Exp. 2, 10.0 min, read-out: Log Reduction): > 4.8
log reduction at 4 ppm ([3]; ATCC9027, 10 min, 4.0 ppm, aged 18 months, Exp. 3, 10.0 min, read-out: Log Reduction): 4.9
log reduction at 4 ppm ([3]; ATCC9027, 10 min, 4.0 ppm, read-out: Log Reduction at 10 Minutes): > 5
log reduction at 5 ppm ([3]; ATCC9027, 10 min, 5.0 ppm, read-out: Log Reduction at 10 Minutes): > 5
log reduction at 4 ppm ([3]; ATCC9027, 0.25 h): 4
log reduction at 4 ppm ([3]; ATCC9027, 0.25 h, 4.0 ppm, Ex. 7, different lot aged 18 months, 15 min, read-out: Log Reduction): 4.2
log reduction at 4 ppm ([3]; ATCC9027, 0.25 h, 4.0 ppm, Ex. 8, different batch aged 19 months at 25 °C, 15 min, read-out: Log Reduction): 3.3
log reduction at 4 ppm ([3]; ATCC9027, 0.5 h, 4.0 ppm, Ex. 6, aged 19 months at 25 °C, 30 min, read-out: Log Reduction): > 4.8
log reduction at 4 ppm ([3]; ATCC9027, 0.5 h, 4.0 ppm, Ex. 7, different lot aged 18 months, 30 min, read-out: Log Reduction): > 4.8
log reduction at 4 ppm ([3]; ATCC9027, 0.5 h, 4.0 ppm, Ex. 8, different batch aged 19 months at 25 °C, 30 min, read-out: Log Reduction): > 4.8
log reduction at 4 ppm ([3]; ATCC9027, 0.75 h, 4.0 ppm, Ex. 6, aged 19 months at 25 °C, 45 min, read-out: Log Reduction): > 4.8
log reduction at 4 ppm ([3]; ATCC9027, 0.75 h, 4.0 ppm, Ex. 7, different lot aged 18 months, 45 min, read-out: Log Reduction): > 4.8
log reduction at 4 ppm ([3]; ATCC9027, 0.75 h, 4.0 ppm, Ex. 8, different batch aged 19 months at 25 °C, 45 min, read-out: Log Reduction): > 4.8
log reduction at 1 ppm ([3]; ATCC9027, 1 h, 1 ppm, 1 hr, read-out: Log Reduction): > 5
log reduction at 2 ppm ([3]; ATCC9027, 1 h, 2 ppm, 1 hr, read-out: Log Reduction): > 5
log reduction at 3 ppm ([3]; ATCC9027, 1 h, 3 ppm, 1 hr, read-out: Log Reduction): > 5
log reduction at 4 µg/mL ([3]; ATCC9027, 1 h, 1 hr): > 4.8
log reduction at 4 ppm ([3]; ATCC9027, 1 h, 4 ppm, 1 hr, read-out: Log Reduction): > 5
log reduction at 4 ppm ([3]; ATCC9027, 1 h, 4.0 ppm, Ex. 6, aged 19 months at 25 °C, 60 min, read-out: Log Reduction): > 4.8
log reduction at 4 ppm ([3]; ATCC9027, 1 h, 4.0 ppm, Ex. 7, different lot aged 18 months, 60 min, read-out: Log Reduction): > 4.8
log reduction at 4 ppm ([3]; ATCC9027, 1 h, 4.0 ppm, Ex. 8, different batch aged 19 months at 25 °C, 60 min, read-out: Log Reduction): > 4.8
log reduction at 5 ppm ([3]; ATCC9027, 1 h, 5 ppm, 1 hr, read-out: Log Reduction): > 5
log reduction at 4 µg/mL ([3]; ATCC9027, 2 h, 2 hr): > 4.8
log reduction at 4 µg/mL ([3]; ATCC9027, 3 h, 3 hr): > 4.8
log reduction at 4 µg/mL ([3]; ATCC9027, 4 h, 4 hr): > 4.8
